In BigSolDB 2.1:

O=P(O)(O)c1ccccc1
Details	solubility (mole fraction)
in 1,4-dioxane, 288.15 K	0.186
in 1,4-dioxane, 293.15 K	0.208
in 1,4-dioxane, 298.15 K	0.224
in 1,4-dioxane, 303.15 K	0.243
in 1,4-dioxane, 308.15 K	0.264
in 1,4-dioxane, 313.15 K	0.286
in 1,4-dioxane, 318.15 K	0.307
in 1,4-dioxane, 323.15 K	0.336
in 1,4-dioxane, 328.15 K	0.36
in 1,4-dioxane, 333.15 K	0.388
in 2-butoxyethanol, 278.15 K	0.199
in 2-butoxyethanol, 283.15 K	0.208
in 2-butoxyethanol, 288.15 K	0.218
in 2-butoxyethanol, 293.15 K	0.231
in 2-butoxyethanol, 298.15 K	0.243
in 2-butoxyethanol, 303.15 K	0.258
in 2-butoxyethanol, 308.15 K	0.27
in 2-butoxyethanol, 313.15 K	0.283
in 2-butoxyethanol, 318.15 K	0.298
in 2-butoxyethanol, 323.15 K	0.317
in 2-butoxyethanol, 328.15 K	0.334
in 2-butoxyethanol, 333.15 K	0.355
in 2-ethoxyethanol, 278.15 K	0.305
in 2-ethoxyethanol, 283.15 K	0.317
in 2-ethoxyethanol, 288.15 K	0.327
in 2-ethoxyethanol, 293.15 K	0.339
in 2-ethoxyethanol, 298.15 K	0.35
in 2-ethoxyethanol, 303.15 K	0.363
in 2-ethoxyethanol, 308.15 K	0.378
in 2-ethoxyethanol, 313.15 K	0.391
in 2-ethoxyethanol, 318.15 K	0.404
in 2-ethoxyethanol, 323.15 K	0.42
in 2-ethoxyethanol, 328.15 K	0.439
in 2-ethoxyethanol, 333.15 K	0.454
in 2-methoxyethanol, 278.15 K	0.342
in 2-methoxyethanol, 283.15 K	0.348
in 2-methoxyethanol, 288.15 K	0.359
in 2-methoxyethanol, 293.15 K	0.371
in 2-methoxyethanol, 298.15 K	0.383
in 2-methoxyethanol, 303.15 K	0.397
in 2-methoxyethanol, 308.15 K	0.408
in 2-methoxyethanol, 313.15 K	0.425
in 2-methoxyethanol, 318.15 K	0.439
in 2-methoxyethanol, 323.15 K	0.453
in 2-methoxyethanol, 328.15 K	0.468
in 2-methoxyethanol, 333.15 K	0.483
in 2-propoxyethanol, 278.15 K	0.244
in 2-propoxyethanol, 283.15 K	0.257
in 2-propoxyethanol, 288.15 K	0.266
in 2-propoxyethanol, 293.15 K	0.28
in 2-propoxyethanol, 298.15 K	0.295
in 2-propoxyethanol, 303.15 K	0.307
in 2-propoxyethanol, 308.15 K	0.318
in 2-propoxyethanol, 313.15 K	0.336
in 2-propoxyethanol, 318.15 K	0.349
in 2-propoxyethanol, 323.15 K	0.368
in 2-propoxyethanol, 328.15 K	0.382
in 2-propoxyethanol, 333.15 K	0.401
in acetone, 273.15 K	0.0872
in acetone, 278.15 K	0.101
in acetone, 283.15 K	0.113
in acetone, 288.15 K	0.13
in acetone, 293.15 K	0.144
in acetone, 298.15 K	0.162
in acetone, 303.15 K	0.178
in acetone, 308.15 K	0.201
in acetone, 313.15 K	0.223
in acetone, 318.15 K	0.249
in ethanol, 278.15 K	0.288
in ethanol, 283.15 K	0.295
in ethanol, 288.15 K	0.305
in ethanol, 293.15 K	0.314
in ethanol, 298.15 K	0.326
in ethanol, 303.15 K	0.334
in ethanol, 308.15 K	0.347
in ethanol, 313.15 K	0.357
in ethanol, 318.15 K	0.371
in ethanol, 323.15 K	0.383
in ethanol, 328.15 K	0.394
in ethanol, 333.15 K	0.407
in isopropanol, 278.15 K	0.24
in isopropanol, 283.15 K	0.251
in isopropanol, 288.15 K	0.265
in isopropanol, 293.15 K	0.277
in isopropanol, 298.15 K	0.291
in isopropanol, 303.15 K	0.307
in isopropanol, 308.15 K	0.317
in isopropanol, 313.15 K	0.331
in isopropanol, 318.15 K	0.346
in isopropanol, 323.15 K	0.361
in isopropanol, 328.15 K	0.376
in isopropanol, 333.15 K	0.394
in methanol, 273.15 K	0.29
in methanol, 278.15 K	0.299
in methanol, 283.15 K	0.307
in methanol, 288.15 K	0.315
in methanol, 293.15 K	0.324
in methanol, 298.15 K	0.335
in methanol, 303.15 K	0.347
in methanol, 308.15 K	0.357
in methanol, 313.15 K	0.369
in methanol, 318.15 K	0.38
in n-butanol, 278.15 K	0.193
in n-butanol, 283.15 K	0.204
in n-butanol, 288.15 K	0.22
in n-butanol, 293.15 K	0.232
in n-butanol, 298.15 K	0.248
in n-butanol, 303.15 K	0.26
in n-butanol, 308.15 K	0.273
in n-butanol, 313.15 K	0.29
in n-butanol, 318.15 K	0.304
in n-butanol, 323.15 K	0.321
in n-butanol, 328.15 K	0.337
in n-butanol, 333.15 K	0.354
in n-heptanol, 278.15 K	0.122
in n-heptanol, 283.15 K	0.133
in n-heptanol, 288.15 K	0.143
in n-heptanol, 293.15 K	0.158
in n-heptanol, 298.15 K	0.17
in n-heptanol, 303.15 K	0.183
in n-heptanol, 308.15 K	0.196
in n-heptanol, 313.15 K	0.212
in n-heptanol, 318.15 K	0.227
in n-heptanol, 323.15 K	0.243
in n-heptanol, 328.15 K	0.26
in n-heptanol, 333.15 K	0.278
in n-hexanol, 278.15 K	0.134
in n-hexanol, 283.15 K	0.146
in n-hexanol, 288.15 K	0.159
in n-hexanol, 293.15 K	0.174
in n-hexanol, 298.15 K	0.188
in n-hexanol, 303.15 K	0.202
in n-hexanol, 308.15 K	0.218
in n-hexanol, 313.15 K	0.23
in n-hexanol, 318.15 K	0.245
in n-hexanol, 323.15 K	0.26
in n-hexanol, 328.15 K	0.278
in n-hexanol, 333.15 K	0.297
in n-octanol, 278.15 K	0.0997
in n-octanol, 283.15 K	0.11
in n-octanol, 288.15 K	0.123
in n-octanol, 293.15 K	0.134
in n-octanol, 298.15 K	0.147
in n-octanol, 303.15 K	0.161
in n-octanol, 308.15 K	0.177
in n-octanol, 313.15 K	0.189
in n-octanol, 318.15 K	0.202
in n-octanol, 323.15 K	0.218
in n-octanol, 328.15 K	0.234
in n-octanol, 333.15 K	0.252
in n-pentanol, 278.15 K	0.161
in n-pentanol, 283.15 K	0.175
in n-pentanol, 288.15 K	0.186
in n-pentanol, 293.15 K	0.199
in n-pentanol, 298.15 K	0.212
in n-pentanol, 303.15 K	0.226
in n-pentanol, 308.15 K	0.242
in n-pentanol, 313.15 K	0.258
in n-pentanol, 318.15 K	0.273
in n-pentanol, 323.15 K	0.287
in n-pentanol, 328.15 K	0.308
in n-pentanol, 333.15 K	0.323
in n-propanol, 278.15 K	0.236
in n-propanol, 283.15 K	0.248
in n-propanol, 288.15 K	0.262
in n-propanol, 293.15 K	0.271
in n-propanol, 298.15 K	0.286
in n-propanol, 303.15 K	0.296
in n-propanol, 308.15 K	0.311
in n-propanol, 313.15 K	0.321
in n-propanol, 318.15 K	0.332
in n-propanol, 323.15 K	0.347
in n-propanol, 328.15 K	0.361
in n-propanol, 333.15 K	0.375
